Experimental data as given in US7335635B2, “14-3-3 binding molecules as sensitizers for anticancer therapies” (Emory University, priority 2001, dated 2008).

Tests used:
14-3-3 = settings: phosphorylation-independent interaction; cited from earlier work
caspase 3 = experiment: Caspase 3 activity in cell lysates (pNA release from Ac-DEVD-pNA); assay type: cell-based; settings: FIG. 10a
Method: Cos-7 cells were lysed 12 hours after transfection with various amounts of DNA coding for EYFP-difopein. Equal amounts of lysates were assayed for the ability to liberate p-nitroaniline (pNA) from the caspase 3 substrate Ac-DEVD-pNA. […] In another study, Cos-7 cells were assayed as in FIG. 5, except that they were treated with 50 μM of the pan-caspase inhibitor zVAD-fink or vehicle immediately prior to transfection (FIG. 10b).

14-3-3ζ/ASK1 = target: T1, 14-3-3ζ/ASK1 (Bos taurus, UniProt P63103); experiment: Peptide inhibition of [35S]-ASK1 binding to immobilized His-14-3-3ζ; settings: FIG. 1
T1 sequence (P63103 1-245): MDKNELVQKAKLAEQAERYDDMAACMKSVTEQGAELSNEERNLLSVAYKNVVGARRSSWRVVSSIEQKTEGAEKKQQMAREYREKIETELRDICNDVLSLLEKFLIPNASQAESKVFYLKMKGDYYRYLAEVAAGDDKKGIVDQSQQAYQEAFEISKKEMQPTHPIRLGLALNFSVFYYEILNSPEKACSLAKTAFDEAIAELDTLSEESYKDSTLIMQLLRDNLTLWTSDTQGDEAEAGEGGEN
Method: To determine the effectiveness of various 14-3-3 antagonist, including R18, S-Raf259, and pS-Raf-259, the peptide antagonists were preincubated with immobilized His-14-3-3ζ before adding [^35S]-labeled ASK1. After washing, 14-3-3-bound ASK1 was quantified by PhosphorImager. The percentage of ASK1 bound to 14-3-3 relative to peptide-free samples is plotted against increasing concentration of the test peptides (FIG. 1).

14-3-3ζ dimer = target: T2, 14-3-3ζ dimer (Bos taurus, UniProt P63103); experiment: R18-Sepharose bead competition with Bad derived phosphopeptides for 14-3-3 binding; settings: 100 nM 14-3-3ζ dimer; FIG. 2
T2 sequence (P63103 1-245): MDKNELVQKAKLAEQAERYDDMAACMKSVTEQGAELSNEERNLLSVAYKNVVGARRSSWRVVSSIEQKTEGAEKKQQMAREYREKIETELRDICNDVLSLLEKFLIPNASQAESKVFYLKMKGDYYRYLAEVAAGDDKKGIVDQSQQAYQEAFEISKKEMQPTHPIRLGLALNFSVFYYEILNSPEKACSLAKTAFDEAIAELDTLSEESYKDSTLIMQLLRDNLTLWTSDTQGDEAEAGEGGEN
Method: R18 was covalently coupled to Sepharose beads. The beads were then incubated with 100 nM 14-3-3ζ dimer along with the indicated concentrations of synthetic phosphopeptides derived from Bad. pS136 contains a 14-3-3 binding site, while pS112 is a similar peptide incapable of binding 14-3-3. Unbound 14-3-3 was washed away from the beads and the remaining proteins were visualized by SDS-PAGE and sliver staining. […] See also, Masters et al. (2001) Molecular Pharmacology 60: 1325-1331, herein incorporated by reference.

COS-7 cells [1] = experiment: Attachment based viability assay (lacZ marker, β-gal activity); assay type: cell-based; settings: expression from transfected vector, FIG. 4, FIG. 8a
Method: R18 is placed under the control of the CMV promoter in a mammalian expression vector pCR3.1 (pSCM110). Cells expressing the control pcDNA3 along with a lacZ marker gave high β-gal activity that was set as 100% survival. […] The R18 effect was dose-dependent because increased R18 expression was correlated with decreased cell viability.
In FIG. 8a, Cos-7 cells were co-transfected with myc-tagged difopein or a control vector along with a lacZ reported gene. After approximately 48 hours floating cells were gently washed away and attached cells were lysed and assayed for β-galactosidase.

COS-7 cells [2] = experiment: DNA content (sub G0) by propidium iodide flow cytometry; assay type: cell-based; settings: for cell death (fraction of cells with sub G0 DNA content): 24 hours after transfection, FIG. 5
Method: The two acidic residues of R18 (Asp and Glu) which are involved in coordinating the basic cluster of 14-3-3 were changed to lysine. This peptide is not expected to bind 14-3-3, but it could retain interaction with other cellular partners if they do exist. Cos-7 cells were cotransfected with a farnesylated (EGFP[)] marker along with EYFP, EYFP-R18, or EYFP-R18 (D12K,E14K). After 24 hours, cells were fixed in ethanol and DNA was stained with propidium iodide. EGFP and PI signal intensities were measured on a FACScan flow cytometer (Becton Dickinson), and transfected cells were placed in various phases of the cell cycle based on their DNA content.
In yet another assay, (FIG. 8c) Cos-7 cells were transfected with EYFP or EYFP-difopein as indicated, and cell death was determined as in FIG. 5. Internucleosomal DNA cleavage, which is a commonly used marker of apoptosis, produces small fragments that can diffuse out of cells during ethanol fixation resulting in decreased signals being seen on staining for DNA (Sub-G0 DNA content). Therefore, the appearance of cell containing sub G0 levels of DNA indicates apoptotic cell death.

COS-7 cells [3] = experiment: Cisplatin-induced cell death with R18 expression, viability assay; assay type: cell-based; settings: myc-tagged R18, cisplatin added 12 hours after transfection, read about 36 hours later; FIG. 11a
Method: (§1) Inhibition of 14-3-3/ligand interactions may facilitate apoptotic cell death induced by cytotoxic agents. To test this possibility, the effects of expression of R18 and difopein on cisplatin-induced cell death was examined (FIG. 11). In FIG. 11a, Cos-7 cells were transfected with a lacZ marker gene along with myc-tagged R18 DNA (amount used shown as the fraction of total DNA). 12 hours after transfection, the indicated concentrations of cisplatin were added. Approximately 36 hours later the viability of the cells was determined as in FIG. 3 above. In FIG. 11b, HeLa cervical cancer cells were transfected with EYFP or EYFP-difopein as indicated. 24 hours later, 50 μM cisplatin or vehicle was added. After 24 hours of cisplatin treatment, the cells were assayed as in 2 above.

COS-7 cells [4] = experiment: Annexin V phenotype of R18 induced cell death; assay type: cell-based; settings: data not shown
14-3-3 proteins = settings: cited from earlier work
14-3-3ζ/Raf-1 = target: T3, 14-3-3ζ/Raf-1 (Bos taurus, UniProt P63103); experiment: Co-immunoprecipitation of FLAG-14-3-3ζ and endogenous Raf-1 in transfected HEK293 cells; assay type: cell-based; settings: FIG. 3
T3 sequence (P63103 1-245): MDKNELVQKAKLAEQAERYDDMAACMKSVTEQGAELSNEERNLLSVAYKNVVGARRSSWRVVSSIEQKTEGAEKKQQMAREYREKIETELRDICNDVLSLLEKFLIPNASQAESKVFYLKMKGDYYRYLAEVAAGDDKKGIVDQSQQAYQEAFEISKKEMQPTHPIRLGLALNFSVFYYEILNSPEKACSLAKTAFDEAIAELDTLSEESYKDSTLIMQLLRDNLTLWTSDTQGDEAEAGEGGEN
Source text: Difopein is a 62 amino acid polypeptide having 14-3-3 antagonist activity. The amino acid sequence of difopein is shown in SEQ ID NO:2 and comprises two R18 monomers (amino acids 6-25 and 37-56 of SEQ ID NO:2) separated by non-repeat linker sequences (amino acids 26-36 of SEQ ID NO:2). […] Specifically, HEK293 cells were transfected with DNA coding for FLAG-tagged 14-3-3ζ and either EYFP or EYFP-difopein as indicated. 14-3-3 was immunoprecipitated using anti-FLAG (M2; Sigma Chemical Co.). In the presence of EYFP, 14-3-3ζ was able to co-precipitate endogenous Raf-1. […] See also, Masters et al. (2001) Journal of Biological Chemistry 276: 45193-45200, herein incorporated by reference.

[5] = system: HeLa cervical cancer cells; experiment: Cisplatin-induced cell death with EYFP-difopein expression; assay type: cell-based; settings: 50 μM cisplatin for 24 hours, FIG. 11b
Method: as §1

COS-7 cells [6] = experiment: Viability by microscopic examination of morphology of X-gal stained transfected cells; assay type: cell-based; settings: about 24 hours post transfection; FIG. 8b
Method: In another assay, Cos-7 cells were cotransfected with a lacZ marker in addition to any EYFP-difopein fusion, EYFP alone, or empty vector. Approximately 24 hours post transfection, cells were fixed and transfected cells were identified by staining with X-gal. Viability of the transfected cells was determined by microscopic examination of cell morphology: live cells were flat, while dead cells were rounded up.

In the case of “Pseudomonas aeruginosa exoenzyme S: exoenzyme S from Pseudomonas aeruginosa, a phosphorylation-independent 14-3-3 ligand”, the “affinity for the amphipathic groove of 14-3-3” value (14-3-3) is given as “high affinity”.

For Ac-DEVD-CHO [reference compound], the “block of EYFP-difopein induced pNA release” value (caspase 3; Cos-7 lysates) was “completely blocked”.

With PHCVPRDLSWLDLEANMCLP [R18] the “inhibitory effect on 14-3-3ζ/ASK1 compared with pS-Raf-259” value (14-3-3ζ/ASK1) was “stronger inhibitory affect”, the “inhibition of the interaction of 14-3-3ζ with ASK1” value (14-3-3ζ/ASK1; peptide preincubated with immobilized His-14-3-3ζ) was “potent inhibitory affect” and the “competition with Bad derived peptide for 14-3-3 binding” value (14-3-3ζ dimer) was “competes with a Bad derived peptide for 14-3-3 binding”. For the same molecule, the “cell viability (β-gal activity)” value (COS-7 cells [1]) was “drastically decreased the population of viable cells”, the “cell death (fraction of cells with sub G0 DNA content)” value (COS-7 cells [2]) was “increase in the fraction of cells containing less than normal amounts of DNA” and the “enhancement of cisplatin-induced cell death” value (COS-7 cells [3]) was “enhance the ability of an antineoplastic drug to kill cells”. The “annexin V phenotype” value (COS-7 cells [4]) was “annexin V-positive phenotype”, the “specificity for 14-3-3 proteins” value (14-3-3 proteins) was “high specificity” and the Kd (14-3-3 proteins; different isoforms of 14-3-3, similar affinity) was 80 nM.

For “R18 (D12K, E14K): R18 with the two acidic residues (Asp and Glu) that coordinate the basic cluster of 14-3-3 changed to lysine (PHCVPRDLSWLKLKANMCLP; left off: large carriers)”, the “cell death (fraction of cells with sub G0 DNA content)” value (COS-7 cells [2]) was “unable to induce cell death”.

B1: difopein: 62 amino acid polypeptide comprising two R18 monomers separated by a non-repeat linker sequence (protein)
chain: SADGAPHCVPRDLSWLDLEANMCLPGAAGLDSADGAPHCVPRDLSWLDLEANMCLPGAAGLE
modifications: difopein polypeptide sequence
In the case of B1, the “binding to 14-3-3 in vivo” value (14-3-3ζ/Raf-1) is reported as “can bind 14-3-3 in vivo”, the “cell viability (β-gal activity)” value (COS-7 cells [1]) is reported as “decreased β-gal activity” and the “cell death compared with monomeric R18” value (COS-7 cells [2]; EYFP-tagged constructs, FIG. 7) is reported as “dramatically enhanced the cell death”. For the same molecule, the “effect on the cell cycle (DNA content distribution, sub G0 cells excluded)” value (COS-7 cells [2]; FIG. 8c, not shown) was “does not disrupt the cell cycle”, the “sensitivity of induced cell death to constitutively active Akt” value (COS-7 cells [2]; co-expression of constitutively active Akt, FIG. 9) was “relatively insensitive to Akt expression” and the “enhancement of cisplatin-induced cell death” value [5] was “enhance the ability of an antineoplastic drug to kill cells”.

B2: EYFP-difopein: EYFP-difopein fusion expressed from transfected DNA (protein)
chain: SADGAPHCVPRDLSWLDLEANMCLPGAAGLDSADGAPHCVPRDLSWLDLEANMCLPGAAGLE
modifications: left off: large carriers
notes: EYFP-difopein fusion expressed from transfected DNA
In the case of B2, the “co-precipitation of endogenous Raf-1 with 14-3-3ζ” value (14-3-3ζ/Raf-1; anti-FLAG immunoprecipitation) is reported as “blocked co-precipitation of Raf-1”, the “reduction of the live cell population” value (COS-7 cells [6]) is reported as “about one-half” and the “pNA release from caspase 3 substrate Ac-DEVD-pNA” value (caspase 3; Cos-7 lysates 12 hours after transfection) is reported as “dose dependent increase in pNA release”.
